What is called IC50 is the concentration needed to halve the response being measured.

Counter-ions that a name gives are not always drawn.

The assay addresses T1, human calcium-sensing receptor (CaSR) (Homo sapiens, UniProt P41180).
T1 construct: expressed in transfected cells; host or cells: CHO cells (CHO/hCaSR)
T1 sequence (P41180 20-1078): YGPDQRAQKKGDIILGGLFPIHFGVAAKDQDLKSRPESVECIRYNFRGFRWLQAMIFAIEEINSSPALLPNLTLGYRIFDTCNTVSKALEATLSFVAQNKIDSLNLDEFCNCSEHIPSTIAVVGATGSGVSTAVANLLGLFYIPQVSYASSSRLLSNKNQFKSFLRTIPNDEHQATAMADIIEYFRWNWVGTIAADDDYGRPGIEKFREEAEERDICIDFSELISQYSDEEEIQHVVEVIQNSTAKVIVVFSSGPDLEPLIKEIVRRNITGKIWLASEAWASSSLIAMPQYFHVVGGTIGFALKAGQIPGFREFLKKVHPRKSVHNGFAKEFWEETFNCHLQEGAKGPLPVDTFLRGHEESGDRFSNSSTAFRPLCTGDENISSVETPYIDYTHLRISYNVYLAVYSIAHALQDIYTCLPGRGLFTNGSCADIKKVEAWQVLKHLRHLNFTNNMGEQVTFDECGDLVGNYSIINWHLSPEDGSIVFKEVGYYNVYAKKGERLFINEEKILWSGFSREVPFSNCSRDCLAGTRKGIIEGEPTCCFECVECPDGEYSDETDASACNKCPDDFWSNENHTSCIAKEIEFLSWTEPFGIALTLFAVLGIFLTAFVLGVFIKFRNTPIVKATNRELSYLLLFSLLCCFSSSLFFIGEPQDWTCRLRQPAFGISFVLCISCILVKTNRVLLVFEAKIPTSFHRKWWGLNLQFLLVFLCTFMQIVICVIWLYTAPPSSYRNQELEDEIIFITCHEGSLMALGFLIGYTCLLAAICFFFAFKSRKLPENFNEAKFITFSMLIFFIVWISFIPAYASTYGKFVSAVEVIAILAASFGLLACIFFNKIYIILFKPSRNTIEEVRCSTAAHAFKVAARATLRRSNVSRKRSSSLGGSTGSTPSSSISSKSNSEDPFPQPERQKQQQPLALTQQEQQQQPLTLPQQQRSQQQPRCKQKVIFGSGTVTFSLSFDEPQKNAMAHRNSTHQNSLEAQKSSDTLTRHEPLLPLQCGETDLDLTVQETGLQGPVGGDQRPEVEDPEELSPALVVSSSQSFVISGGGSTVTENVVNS
Description: Inhibitory activity on calcium-sensing receptor (CaSR) using intracellular calcium increase as an indicator (FLIPR, CHO/hCaSR). Type of assay: cell-based. The note with it: CHO/hCaSR cells; intracellular Ca increase induced by CaCl2; test compound 1.05 to 10,000 nM. As for the experimental part:
Evaluation of inhibitory activity on calcium-sensing receptor (CaSR) using intracellular calcium increase as an indicator
The preparation which is prepared by adding CHO/hCaSR to F12 medium (manufactured by Invitrogen) containing 10% fetal bovine serum to have 2×10^5 cells/mL was applied to a 384-well in an amount of 50 μL/well, and then incubated overnight in a CO2 incubator. The culture supernatant was completely removed, the assay buffer (20 mM HEPES, HBSS (Ca and Mg free) containing 2.5 mM probenecid, pH 7.4) containing Calcium 3 (manufactured by Molecular Devices), i.e., a fluorescent intracellular calcium indicator, was added thereto in an amount of 25 μL/well, and the mixture was maintained for 1 hour in a CO2 incubator. Meanwhile, Calcium 3 was prepared according to the protocol enclosed in FLIPR Calcium 3 Assay Kit (manufactured by Molecular Devices). After maintaining it for 1 hour, a solution in which the test compound is prepared to have 2.1 to 20,000 nM (final concentration of 1.05 to 10,000 nM) by an assay buffer was added thereto in an amount of 25 μL/well, and maintained for 15 minutes in a CO2 incubator. Then, the CaCl2 solution prepared to have […] by using the assay buffer was added in an amount of 25 μL/well, and the resulting intracellular Ca increase (i.e., fluorescence intensity) was measured over time using a fluorescence imaging plate reader (FLIPR, manufactured by Molecular Devices). From the data obtained, the difference between the fluorescence intensity before the addition of CaCl2 solution and the maximum fluorescence intensity after the addition of CaCl2 solution was calculated, and the 50% inhibition concentration (IC50) of the test compound was obtained.
For orientation: A change in cytosolic calcium serves as a functional read-out for many receptors and channels.
On to `CC[C@@H](OC[C@H](O)CNC(C)(C)CC1Cc2ccccc2C1)c1cccc(F)c1CCC(=O)O` [Example 39], for which the IC50 was at most 2330 nM. Regarding `CC[C@@H](OC[C@H](O)CNC(C)(C)CC1Cc2ccccc2C1)c1ccc(C)cc1CCC(=O)O` [Example 40], the IC50 was at most 2350 nM. With `CC[C@@H](OC[C@H](O)CNC(C)(C)CC1Cc2ccccc2C1)c1cccc(OC)c1CCC(=O)O` [Example 41], the half-inhibitory concentration (IC50) is at most 2270 nM. With `Cc1cccc([C@@H](C)OC[C@H](O)CNC(C)(C)CC2Cc3ccccc3C2)c1CCC(=O)O` [Example 42], the IC50 was at most 2420 nM.

In the case of `Cc1ccc([C@@H](C)OC[C@H](O)CNC(C)(C)CC2Cc3ccccc3C2)c(CCCCC(=O)O)c1` [Example 43], the IC50 is at most 2280 nM.

Regarding `C[C@@H](OC[C@H](O)CNC(C)(C)CC1Cc2ccccc2C1)c1ccc(F)cc1CCCCC(=O)O` [Example 44], the half-inhibitory concentration (IC50) was at most 2270 nM. The figure for `C[C@@H](OC[C@H](O)CNC(C)(C)CC1Cc2ccccc2C1)c1cc(F)ccc1CCCCC(=O)O` [Example 45] is at most 2270 nM; for `Cc1ccc(CCCCC(=O)O)c([C@@H](C)OC[C@H](O)CNC(C)(C)CC2Cc3ccccc3C2)c1` [Example 46] it is at most 2280 nM. With `Cc1cccc([C@@H](C)OC[C@H](O)CNC(C)(C)CC2Cc3ccccc3C2)c1CCCCC(=O)O` [Example 47], the half-maximal inhibitory concentration (IC50) is at most 2280 nM. For `C[C@@H](OC[C@H](O)CNC(C)(C)CC1Cc2ccccc2C1)c1cccc(F)c1CCCCC(=O)O` [Example 48], the half-maximal inhibitory concentration (IC50) was at most 2270 nM.

For the molecule `C[C@@H](OC[C@H](O)CNC(C)(C)CC1Cc2ccccc2C1)c1cc(C(F)(F)F)ccc1CCC(=O)O` [Example 49], the half-inhibitory concentration (IC50) is at most 2170 nM.

Take `C[C@@H](OC[C@H](O)CNC(C)(C)CC1Cc2ccccc2C1)c1cc(C(F)(F)F)ccc1CCCCC(=O)O` [Example 50]: the IC50 is at most 2050 nM. In the case of `CCC[C@@H](OC[C@H](O)CNC(C)(C)CC1Cc2ccccc2C1)c1cc(F)ccc1CCC(=O)O` [Example 51], the IC50 was at most 2270 nM. The figure for `CCC[C@@H](OC[C@H](O)CNC(C)(C)CC1Cc2ccccc2C1)c1cccc(C)c1CCC(=O)O` [Example 52] is at most 2280 nM; for `CCC[C@@H](OC[C@H](O)CNC(C)(C)CC1Cc2ccccc2C1)c1cccc(F)c1CCC(=O)O` [Example 53] it is at most 2270 nM. For the molecule `CCC[C@@H](OC[C@H](O)CNC(C)(C)CC1Cc2ccccc2C1)c1ccc(C)cc1CCC(=O)O` [Example 54], the IC50 is at most 2280 nM. Turning to `CCC[C@@H](OC[C@H](O)CNC(C)(C)CC1Cc2ccccc2C1)c1cccc(OC)c1CCC(=O)O` [Example 55], the IC50 was at most 2210 nM. With `CCOc1ccc(CCC(=O)O)c([C@@H](C)OC[C@H](O)CNC(C)(C)CC2Cc3ccccc3C2)c1` [Example 56] the figure was at most 2270 nM; with `CCOc1ccc(CCCCC(=O)O)c([C@@H](C)OC[C@H](O)CNC(C)(C)CC2Cc3ccccc3C2)c1` [Example 58], at most 2150 nM. With `CC[C@@H](OC[C@H](O)CNC(C)(C)CC1Cc2ccccc2C1)c1cc(F)c(C)cc1CCC(=O)O` [Example 60], the IC50 was at most 2270 nM.

For `CC[C@@H](OC[C@H](O)CNC(C)(C)CC1Cc2ccccc2C1)c1cc(F)c(C)cc1CCCCC(=O)O` [Example 61], the IC50 is at most 2140 nM. Regarding `CCOc1cccc([C@@H](C)OC[C@H](O)CNC(C)(C)CC2Cc3ccccc3C2)c1CCC(=O)O` [Example 62], the IC50 is at most 2270 nM. With `CCOc1cccc([C@@H](C)OC[C@H](O)CNC(C)(C)CC2Cc3ccccc3C2)c1CCCCC(=O)O` [Example 63] the figure was at most 2150 nM; with `CC(C)Oc1cccc([C@@H](C)OC[C@H](O)CNC(C)(C)CC2Cc3ccccc3C2)c1CCC(=O)O` [Example 64], at most 2210 nM; with `CC(C)Oc1cccc([C@@H](C)OC[C@H](O)CNC(C)(C)CC2Cc3ccccc3C2)c1CCCCC(=O)O` [Example 65], at most 2090 nM. Turning to `C[C@@H](OC[C@H](O)CNC(C)(C)CC1Cc2ccccc2C1)c1cccc(OC(F)F)c1CCC(=O)O` [Example 66], the IC50 was at most 2180 nM. The figure for `C[C@@H](OC[C@H](O)CNC(C)(C)CC1Cc2ccccc2C1)c1ccccc1CCCCCC(=O)O` [Example 67] is at most 2280 nM; for `C[C@@H](OC[C@H](O)CNC(C)(C)CC1Cc2ccccc2C1)c1ccccc1CCCCCCC(=O)O` [Example 68] it is at most 2220 nM. For the molecule `C[C@@H](OC[C@H](O)CNC(C)(C)CC1Cc2ccccc2C1)c1ccc(Cl)cc1CCC(=O)O` [Example 69], the IC50 was at most 2320 nM.

`C[C@@H](OC[C@H](O)CNC(C)(C)CC1Cc2ccccc2C1)c1cc(Cl)ccc1CCC(=O)O` [Example 70]: the 50% inhibitory concentration (IC50) is at most 2320 nM.

Turning to `C[C@@H](OC[C@H](O)CNC(C)(C)CC1Cc2ccccc2C1)c1cccc(Cl)c1CCC(=O)O` [Example 71], the 50% inhibitory concentration (IC50) is at most 2320 nM.

`C[C@@H](OC[C@H](O)CNC(C)(C)CC1Cc2ccccc2C1)c1ccc(Cl)cc1CCCCC(=O)O` [Example 72]: the IC50 is at most 2190 nM. With `CC[C@@H](OC[C@H](O)CNC(C)(C)CC1Cc2ccccc2C1)c1cc(Cl)ccc1CCC(=O)O` [Example 73] the figure was at most 2250 nM. Turning to `CC[C@@H](OC[C@H](O)CNC(C)(C)CC1Cc2ccccc2C1)c1ccc(Cl)cc1CCC(=O)O` [Example 74], the half-inhibitory concentration (IC50) is at most 2250 nM. On to `CC[C@@H](OC[C@H](O)CNC(C)(C)CC1Cc2ccccc2C1)c1cccc(Cl)c1CCC(=O)O` [Example 75], for which the IC50 is at most 2250 nM. With `CCC[C@@H](OC[C@H](O)CNC(C)(C)CC1Cc2ccccc2C1)c1cc(Cl)ccc1CCC(=O)O` [Example 76] the figure was at most 2190 nM; with `CCC[C@@H](OC[C@H](O)CNC(C)(C)CC1Cc2ccccc2C1)c1ccc(Cl)cc1CCC(=O)O` [Example 77], at most 2190 nM; with `CCC[C@@H](OC[C@H](O)CNC(C)(C)CC1Cc2ccccc2C1)c1cccc(Cl)c1CCC(=O)O` [Example 78], at most 2190 nM. Consider `CC[C@@H](OC[C@H](O)CNC(C)(C)CC1Cc2ccccc2C1)c1cc(F)c(F)cc1CCC(=O)O` [Example 79], for which the half-maximal inhibitory concentration (IC50) is at most 2250 nM. Take `CC[C@@H](OC[C@H](O)CNC(C)(C)CC1Cc2ccccc2C1)c1cc(F)cc(F)c1CCC(=O)O` [Example 80]: the concentration for half-maximal inhibition (IC50) was at most 2250 nM. With `C[C@@H](OC[C@H](O)CNC(C)(C)CC1Cc2ccccc2C1)c1ccccc1CCc1nn[nH]n1` [Example 81, (2R)-1-{[2-(2,3-Dihydro-1H-inden-2-yl)-1,1-dimethylethyl]amino}-3-[(1R)-1-{2-[2-(2H-tetrazol-5-yl)ethyl]phenyl}ethoxy]propan-2-ol formate] the figure was at most 2160 nM; with `C[C@@H](OC[C@H](O)CNC(C)(C)CC1Cc2ccccc2C1)c1ccccc1CC(C)(C)C(=O)O` [Example 82, 3-{2-[(1R)-1-{[(2R)-3-{[1-(2,3-Dihydro-1H-inden-2-yl)-2-methylpropan-2-yl]amino}-2-hydroxypropyl]oxy}ethyl]phenyl}-2,2-dimethylpropanoic acid], at most 2350 nM; with `C[C@@H](OC[C@H](O)CNC(C)(C)CC1Cc2ccccc2C1)c1ccccc1CCOCC(=O)O` [Example 83, (2-{2-[(1R)-1-{[(2R)-3-{[1-(2,3-Dihydro-1H-inden-2-yl)-2-methylpropan-2-yl]amino}-2-hydroxypropyl]oxy}ethyl]phenyl}ethoxy)acetic acid], at most 2340 nM.
